Experimental data: ChEMBL document CHEMBL4308897, “Antileishmanial activity and cytotoxicity of ent-beyerene diterpenoids” (Bioorg Med Chem, 2019)
Activity calls are given as the source filed them. The rule behind the calls is not given here.

Experiments:
Leishmania braziliensis [1] = experiment: Antileishmanial activity against Leishmania (Viannia) braziliensis HMOM/COL/88/UA301-EGFP intracellular amastigotes infected in human U937 cells after 72 hrs by flow cytometric analysis; format: functional, organism-based; details: HMOM/COL/88/UA301, U-937, 72 h
[2] = Selectivity index, ratio of LC50 for human U937 cells to EC50 for Leishmania (Viannia) braziliensis HMOM/COL/88/UA301-EGFP intracellular amastigotes infected in human U937 cells; format: toxicity, cell-based; details: read-out: Selectivity Index
[3] = Cytotoxicity against human U937 cells after 72 hrs by MTT assay; format: cell-based, U-937; details: read-out: LC50
Syrian golden hamster [4] = experiment: Antiinflammatory activity in golden hamster infected with Leishmania (Viannia) braziliensis HMOM/COL/88/UA301-EGFP assessed as migration of lymphocytes in skin at 200 ug administered intralesionally twice per week for 4 weeks measured 3 months post last dose by histopathological analysis; format: functional, organism-based; details: Mesocricetus auratus
Leishmania braziliensis [5] = experiment: Antileishmanial activity against Leishmania (Viannia) braziliensis HMOM/COL/88/UA301-EGFP infected in golden hamster assessed as clinical improvement at 200 ug administered intralesionally twice per week for 4 weeks measured 3 months post last dose relative to control; format: functional, organism-based
Leishmania braziliensis [6] = experiment: Antileishmanial activity against Leishmania (Viannia) braziliensis HMOM/COL/88/UA301-EGFP infected in golden hamster assessed as clinical failure at 200 ug administered intralesionally twice per week for 4 weeks measured 3 months post last dose relative to control; format: functional, organism-based
Leishmania braziliensis [7] = experiment: Antileishmanial activity against Leishmania (Viannia) braziliensis HMOM/COL/88/UA301-EGFP infected in golden hamster assessed as cure rate at 200 ug administered intralesionally twice per week for 4 weeks measured 3 months post last dose relative to control; format: functional, organism-based
Syrian golden hamster [8] = experiment: Antiinflammatory activity in golden hamster infected with Leishmania (Viannia) braziliensis HMOM/COL/88/UA301-EGFP assessed as re-epithelialization in skin at 200 ug administered intralesionally twice per week for 4 weeks measured 3 months post last dose by histopathological analysis; format: functional, organism-based; details: Mesocricetus auratus
Leishmania braziliensis [9] = experiment: Antileishmanial activity against Leishmania (Viannia) braziliensis HMOM/COL/88/UA301-EGFP infected in golden hamster assessed as relapse at 200 ug administered intralesionally twice per week for 4 weeks measured 3 months post last dose relative to control; format: functional, organism-based
Syrian golden hamster [10] = experiment: Antiinflammatory activity in golden hamster infected with Leishmania (Viannia) braziliensis HMOM/COL/88/UA301-EGFP assessed as migration of macrophages in skin at 200 ug administered intralesionally twice per week for 4 weeks measured 3 months post last dose by histopathological analysis; format: functional, organism-based; details: Mesocricetus auratus
Syrian golden hamster [11] = experiment: Antiinflammatory activity in golden hamster infected with Leishmania (Viannia) braziliensis HMOM/COL/88/UA301-EGFP assessed as migration of plasmocytes in skin at 200 ug administered intralesionally twice per week for 4 weeks measured 3 months post last dose by histopathological analysis; format: functional, organism-based; details: Mesocricetus auratus
[12] = Hepatotoxicity in golden hamster infected with Leishmania (Viannia) braziliensis HMOM/COL/88/UA301-EGFP assessed as infiltration of macrophages at 0.81% to 1.96% administered topically as cream formulation for 20 days measured 90 days post last dose by histopathological analysis; format: toxicity, Mesocricetus auratus; details: in vivo, topical_or_ocular, 2160 h
Syrian golden hamster [13] = experiment: (§1) Antiinflammatory activity in golden hamster infected with Leishmania (Viannia) braziliensis HMOM/COL/88/UA301-EGFP assessed as migration of lymphocytes in skin at 0.81% to 1.96% administered topically as cream formulation for 20 days and measured 3 months post last treatment by histopathological analysis; format: functional, organism-based; details: Mesocricetus auratus
Leishmania braziliensis [14] = experiment: Antileishmanial activity against Leishmania (Viannia) braziliensis HMOM/COL/88/UA301-EGFP infected in golden hamster assessed as clinical improvement at 1.96% administered topically as cream formulation for 20 days measured 3 months post last dose relative to control; format: functional
[15] = Toxicity in golden hamster infected with Leishmania (Viannia) braziliensis HMOM/COL/88/UA301-EGFP assessed as change in body weight at 0.81% to 1.96% administered topically as cream formulation for 20 days measured up to 90 days post last dose; set-up: species or system Mesocricetus auratus; details: in vivo, topical_or_ocular
[16] = Toxicity in golden hamster infected with Leishmania (Viannia) braziliensis HMOM/COL/88/UA301-EGFP assessed as effect on serum BUN level at 0.81% to 1.96% administered topically as cream formulation for 20 days and measured day 8 post last treatment; set-up: species or system Mesocricetus auratus; details: in vivo, topical_or_ocular, 480 h
[17] = Hepatotoxicity in golden hamster infected with Leishmania (Viannia) braziliensis HMOM/COL/88/UA301-EGFP assessed as congestion at 0.81% to 1.96% administered topically as cream formulation for 20 days measured 90 days post last dose by histopathological analysis; format: toxicity, Mesocricetus auratus; details: in vivo, topical_or_ocular, 2160 h
Syrian golden hamster [18] = experiment: as §1, with “macrophages” for “lymphocytes”; format: functional, organism-based; details: Mesocricetus auratus
[19] = Toxicity in golden hamster infected with Leishmania (Viannia) braziliensis HMOM/COL/88/UA301-EGFP assessed as effect on serum alanine aminotransferase level at 0.81% to 1.96% administered topically as cream formulation for 20 days and measured day 8 post last treatment; set-up: species or system Mesocricetus auratus; details: in vivo, topical_or_ocular, 480 h
[20] = Hepatotoxicity in golden hamster infected with Leishmania (Viannia) braziliensis HMOM/COL/88/UA301-EGFP assessed as vacuolar degeneration at 0.81% to 1.96% administered topically as cream formulation for 20 days measured 90 days post last dose by histopathological analysis; format: toxicity, Mesocricetus auratus; details: in vivo, topical_or_ocular, 2160 h
Leishmania braziliensis [21] = experiment: Antileishmanial activity against Leishmania (Viannia) braziliensis HMOM/COL/88/UA301-EGFP infected in golden hamster assessed as relapse at 1.96% administered topically as cream formulation for 20 days measured 3 months post last dose relative to control; format: functional
Leishmania braziliensis [22] = experiment: Antileishmanial activity against Leishmania (Viannia) braziliensis HMOM/COL/88/UA301-EGFP infected in golden hamster assessed as cure rate at 0.81% administered topically as cream formulation for 20 days measured 3 months post last dose relative to control; format: functional
[23] = Toxicity in golden hamster infected with Leishmania (Viannia) braziliensis HMOM/COL/88/UA301-EGFP assessed as effect on serum creatinine level at 0.81% to 1.96% administered topically as cream formulation for 20 days and measured day 8 post last treatment; set-up: species or system Mesocricetus auratus; details: in vivo, topical_or_ocular, 480 h
Syrian golden hamster [24] = experiment: as §1, with “plasmocytes” for “lymphocytes”; format: functional, organism-based; details: Mesocricetus auratus
Leishmania braziliensis [25] = experiment: Antileishmanial activity against Leishmania (Viannia) braziliensis HMOM/COL/88/UA301-EGFP infected in golden hamster assessed as parasitic load per milligram of tissue at 0.81 to 1.96% administered topically as cream formulation for 20 days measured 3 months post last dose by RT-PCR analysis; format: functional
Leishmania braziliensis [26] = experiment: Antileishmanial activity against Leishmania (Viannia) braziliensis HMOM/COL/88/UA301-EGFP infected in golden hamster assessed as clinical improvement at 0.81% administered topically as cream formulation for 20 days measured 3 months post last dose relative to control; format: functional
Leishmania braziliensis [27] = experiment: Antileishmanial activity against Leishmania (Viannia) braziliensis HMOM/COL/88/UA301-EGFP infected in golden hamster assessed as relapse at 0.81% administered topically as cream formulation for 20 days measured 3 months post last dose relative to control; format: functional
[28] = Hepatotoxicity in golden hamster infected with Leishmania (Viannia) braziliensis HMOM/COL/88/UA301-EGFP assessed as hemosiderin pigmentation at 0.81% to 1.96% administered topically as cream formulation for 20 days measured 90 days post last dose by histopathological analysis; format: toxicity, Mesocricetus auratus; details: in vivo, topical_or_ocular, 2160 h
Leishmania braziliensis [29] = experiment: Antileishmanial activity against Leishmania (Viannia) braziliensis HMOM/COL/88/UA301-EGFP infected in golden hamster assessed as clinical failure at 0.81% administered topically as cream formulation for 20 days measured 3 months post last dose relative to control; format: functional
Leishmania braziliensis [30] = experiment: Antileishmanial activity against Leishmania (Viannia) braziliensis HMOM/COL/88/UA301-EGFP infected in golden hamster assessed as cure rate at 1.96% administered topically as cream formulation for 20 days measured 3 months post last dose relative to control; format: functional
[31] = Hepatotoxicity in golden hamster infected with Leishmania (Viannia) braziliensis HMOM/COL/88/UA301-EGFP assessed as infiltration of lymphocytes at 0.81% to 1.96% administered topically as cream formulation for 20 days measured 90 days post last dose by histopathological analysis; format: toxicity, Mesocricetus auratus; details: in vivo, topical_or_ocular, 2160 h
Leishmania braziliensis [32] = experiment: Antileishmanial activity against Leishmania (Viannia) braziliensis HMOM/COL/88/UA301-EGFP infected in golden hamster assessed as clinical failure at 1.96% administered topically as cream formulation for 20 days measured 3 months post last dose relative to control; format: functional
[33] = Renal toxicity in golden hamster infected with Leishmania (Viannia) braziliensis HMOM/COL/88/UA301-EGFP assessed as vacuolar degeneration at 0.81% to 1.96% administered topically as cream formulation for 20 days measured 90 days post last dose by histopathological analysis; set-up: species or system Mesocricetus auratus; details: in vivo, topical_or_ocular, 2160 h

## CCOC(=O)[C@]1(C)CCC[C@@]2(C)[C@@H]3CC=C(C)C[C@@]3(CC#N)CC[C@@H]21
Leishmania braziliensis [1]
  EC50: 14.1 µM
[2]
  selectivity ratio: 0.6
[3]
  CC50 at 72 h: 9.1 µM

## C[C@]12CC[C@H]3[C@]4(C)CCC[C@@](C)(C(=O)O)[C@H]4CC[C@@]3(C1)[C@H]1O[C@H]12
Leishmania braziliensis [1]
  EC50: 43.3 µM
[2]
  selectivity ratio: 1.5
[3]
  CC50 at 72 h: 64.8 µM

## MEGLUMINE ANTIMONATE
Syrian golden hamster [4]
  Activity: Active
Leishmania braziliensis [5]
  Activity: 16.7%
Leishmania braziliensis [6]
  Activity: 0%
Leishmania braziliensis [7]
  Activity: 66.7%
Syrian golden hamster [8]
  Activity: Active
Leishmania braziliensis [9]
  Activity: 16.7%
Syrian golden hamster [10]
  Activity: Active
Syrian golden hamster [11]
  Activity: Active

## Cc1ccc(S(=O)(=O)N/N=C2/C[C@]34CC[C@H]5[C@@](C)(CCC[C@@]5(C)C(=O)O)[C@@H]3CC[C@@]2(C)C4)cc1
Leishmania braziliensis [1]
  EC50: 2.3 µM
[2]
  selectivity ratio: 3.1
[3]
  CC50 at 72 h: 5.9 µM

## CCOC(=O)[C@]1(C)CCC[C@@]2(C)[C@@H]3CC[C@@]4(C)C[C@]3(CC[C@@H]21)CC4=O
Leishmania braziliensis [1]
  EC50: 36.3 µM
[2]
  selectivity ratio: 0.86
[3]
  CC50 at 72 h: 51.9 µM

## C[C@@]12CC[C@@H]3[C@@](CC[C@@H]4[C@](C)(CO)CCC[C@]43C)(CC1)C2
Leishmania braziliensis [1]
  EC50: 18.1 µM
[2]
  selectivity ratio: 1.6
[3]
  CC50 at 72 h: 29.6 µM

## C[C@@H]1[C@H](O)[C@@H](C)/C=C/C=C/C=C/C=C/C=C/C=C/C=C/[C@H](O[C@@H]2O[C@H](C)[C@@H](O)[C@H](N)[C@@H]2O)C[C@@H]2O[C@](O)(C[C@@H](O)C[C@@H](O)[C@H](O)CC[C@@H](O)C[C@@H](O)CC(=O)O[C@H]1C)C[C@H](O)[C@H]2C(=O)O [AMPHOTERICIN B]
Leishmania braziliensis [1]
  EC50: 0.8 µM
[2]
  selectivity ratio: 71.8
[3]
  CC50 at 72 h: 54.4 µM

## C[C@]12C=C[C@@]3(CC[C@H]4[C@@](C)(CCC[C@@]4(C)C(=O)O)[C@@H]3CC1)C2 [MONOGINOIC ACID]
Leishmania braziliensis [1]
  EC50: > 66 µM
[2]
  selectivity ratio: > 2
[3]
  CC50 at 72 h: 130 µM

## CCOC(=O)[C@]1(C)CCC[C@@]2(C)[C@@H]3CC[C@@]4(C)C[C@]3(CC[C@@H]21)C/C4=N/NS(=O)(=O)c1ccc(C)cc1
Leishmania braziliensis [1]
  EC50: 3 µM
[2]
  selectivity ratio: 3.5
[3]
  CC50 at 72 h: 8.8 µM

## C[C@]12C=C[C@@]3(CC[C@@H]4[C@](C)(CO)CCC[C@@]4(C)[C@@H]3CC1)C2
[12]
  Activity: Toxic
Leishmania braziliensis [1]
  EC50: 16 µM
Syrian golden hamster [13]
  Activity: Active
[2]
  selectivity ratio: 5.1
Leishmania braziliensis [14]
  Activity: 50%
[15]
  Activity: Non-Toxic
[16]
  Activity: Non-Toxic
[17]
  Activity: Toxic
Syrian golden hamster [18]
  Activity: Active
[19]
  Activity: Non-Toxic
[20]
  Activity: Toxic
[3]
  CC50 at 72 h: 114 µM
Leishmania braziliensis [21]
  Activity: 16.7%
Leishmania braziliensis [22]
  Activity: 50%
[23]
  Activity: Non-Toxic
Syrian golden hamster [24]
  Activity: Active
Leishmania braziliensis [25]
  Activity: <500
Leishmania braziliensis [26]
  Activity: 50%
Leishmania braziliensis [27]
  Activity: 0%
[28]
  Activity: Toxic
Leishmania braziliensis [29]
  Activity: 0%
Leishmania braziliensis [30]
  Activity: 16.7%
[31]
  Activity: Toxic
Leishmania braziliensis [32]
  Activity: 16.7%
[33]
  Activity: Toxic

## CCOC(=O)[C@]1(C)CCC[C@@]2(C)[C@@H]3CC[C@@]4(C)C[C@]3(CC[C@@H]21)C[C@H]4O
Leishmania braziliensis [1]
  EC50: 13.6 µM
[2]
  selectivity ratio: 1.4
[3]
  CC50 at 72 h: 28.8 µM

## C[C@@]12CC[C@@H]3[C@@](CC[C@H]4[C@@]3(C)CCC[C@@]4(C)C(=O)O)(CC1=O)C2 [ISOSTEVIOL]
Leishmania braziliensis [1]
  EC50: > 20 µM
[2]
  selectivity ratio: > 3.3
[3]
  CC50 at 72 h: 66.9 µM

## C[C@]12CC[C@H]3[C@]4(C)CCC[C@@](C)(CO)[C@H]4CC[C@@]3(C1)[C@H]1O[C@H]12
Leishmania braziliensis [1]
  EC50: > 63 µM
[2]
  selectivity ratio: > 1.9
[3]
  CC50 at 72 h: 118 µM

## CCOC(=O)[C@]1(C)CCC[C@@]2(C)[C@@H]3CC[C@@]4(C)C[C@]3(CC[C@@H]21)C/C4=N/O
Leishmania braziliensis [1]
  EC50: 8.8 µM
[2]
  selectivity ratio: 1.8
[3]
  CC50 at 72 h: 15.7 µM
